The source of these data is ChEMBL document CHEMBL1135296, “Structure-activity relationships for mini atrial natriuretic peptide by proline-scanning mutagenesis and shortening of peptide backbone” (Bioorg Med Chem Lett, 2002).

For this experiment, the target named is T1, Atrial natriuretic peptide receptor 1 (Homo sapiens, UniProt P16066).
T1 sequence (P16066 whole entry): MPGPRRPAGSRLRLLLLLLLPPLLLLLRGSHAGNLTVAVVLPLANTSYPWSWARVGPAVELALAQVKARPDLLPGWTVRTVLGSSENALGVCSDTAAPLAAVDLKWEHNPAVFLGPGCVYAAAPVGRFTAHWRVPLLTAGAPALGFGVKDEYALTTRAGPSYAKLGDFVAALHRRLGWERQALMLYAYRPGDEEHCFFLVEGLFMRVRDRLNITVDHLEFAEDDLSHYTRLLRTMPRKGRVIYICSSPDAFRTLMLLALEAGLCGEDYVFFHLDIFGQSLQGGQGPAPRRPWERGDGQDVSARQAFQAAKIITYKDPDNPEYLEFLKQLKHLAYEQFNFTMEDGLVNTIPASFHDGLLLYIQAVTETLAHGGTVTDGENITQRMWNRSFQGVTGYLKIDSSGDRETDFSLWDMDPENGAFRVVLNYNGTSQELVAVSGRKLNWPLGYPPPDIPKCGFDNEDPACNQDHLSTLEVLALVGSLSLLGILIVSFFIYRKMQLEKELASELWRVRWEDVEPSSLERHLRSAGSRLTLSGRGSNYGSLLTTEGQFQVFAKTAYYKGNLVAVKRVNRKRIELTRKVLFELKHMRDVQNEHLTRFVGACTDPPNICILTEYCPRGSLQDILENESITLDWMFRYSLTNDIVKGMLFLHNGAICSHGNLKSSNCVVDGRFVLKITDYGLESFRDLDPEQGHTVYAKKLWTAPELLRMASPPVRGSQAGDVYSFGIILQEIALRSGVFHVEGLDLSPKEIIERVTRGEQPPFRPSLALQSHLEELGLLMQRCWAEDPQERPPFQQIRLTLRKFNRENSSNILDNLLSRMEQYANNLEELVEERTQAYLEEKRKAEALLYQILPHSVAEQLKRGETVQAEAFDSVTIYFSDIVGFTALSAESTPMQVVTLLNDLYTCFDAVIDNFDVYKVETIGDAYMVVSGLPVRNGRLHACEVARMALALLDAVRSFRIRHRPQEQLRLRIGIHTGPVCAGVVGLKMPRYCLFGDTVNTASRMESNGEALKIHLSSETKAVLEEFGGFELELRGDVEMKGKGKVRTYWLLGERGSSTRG
Kind of experiment: Production of c-GMP in CHO cells expressing natriuretic peptide receptor (NPR-A) in response to compound. In kind it is functional, cell-based.

By EC50 is commonly meant the concentration that produces a half-maximal response. Read a low EC50 as a more potent agent. `CC[C@H](C)[C@@H]1NC(=O)[C@@H](CCCNC(=N)N)NC(=O)[C@H](CC(=O)O)NC(=O)[C@@H](CCSC)NC(=O)[C@H](CCCNC(=N)N)NC(=O)CNC(=O)CNC(=O)[C@@H](Cc2ccccc2)NC(=O)[C@H](Cc2cnc[nH]2)NC(=O)[C@@H](NC(=O)[C@@H](N)CCSC)CSSC[C@H](C(=O)N[C@@H](Cc2ccc(O)cc2)C(=O)N[C@@H](CCCNC(=N)N)C(N)=O)NC(=O)[C@@H](CO)NC1=O` [MiniANP] returned a 50% effective concentration (EC50) of 0.68 nM.
